Results taken from US9695155B2, “Herbicidal substituted pyrimidinyloxy benzene compounds” (E. I. DU PONT DE NEMOURS AND COMPANY, priority 2013, dated 2017).

What was measured:
[1] = test system: chickweed; assay: Test D preemergence; format: in vivo, Stellaria media; conditions: Stellaria media, pre-emergence, scale 0-100, read-out: Plant response rating, Chickweed
In short: (§1)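 Greenhouse herbicide screen. Sowing into silt loam for preemergence application; foliar application to 2–18 cm seedlings in potting mix for postemergence. 0–100 visual control rating after 7–21 d.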

[2] = test system: galium; assay: Test D preemergence; format: in vivo, Galium aparine; conditions: Galium, pre-emergence
Source text: (§2) Seeds of plant species selected from bluegrass (annual bluegrass, Poa annua), blackgrass (Alopecurus myosuroides), canarygrass (littleseed canarygrass, Phalaris minor), chickweed (common chickweed, Stellaria media), galium (catchweed bedstraw, Galium aparine), bromegrass, downy (downy bromegrass, Bromus tectorum), field poppy (Papaver rhoeas), field violet (Viola arvensis), green foxtail (Setaria viridis), deadnettle (henbit deadnettle, Lamium amplexicaule), Italian ryegrass (Lolium multiflorum), kochia (Kochia scoparia), lambsquarters (Chenopodium album), oilseed rape (Brassica napus), pigweed (Amaranthus retroflexus), chamomile (scentless chamomile, Matricaria inodora), Russian thistle (Salsola kali), speedwell (bird's-eye speedwell, Veronica persica), spring barley (Hordeum vulgare), spring wheat (Triticum aestivum), wild buckwheat (Polygonum convolvulus), wild mustard (Sinapis arvensis), wild oat (Avena fatua), wild radish (Raphanus raphanistrum), windgrass (Apera spica-venti), winter barley (Hordeum vulgare), and winter wheat (Triticum aestivum) were planted into a silt loam soil and treated preemergence with test chemicals formulated in a non-phytotoxic solvent mixture which included a surfactant.
(§3) At the same time, these species were planted in pots containing Redi-Earth® planting medium (Scotts Company, 14111 Scottslawn Road, Marysville, Ohio 43041) comprising spaghnum peat moss, vermiculite, wetting agent and starter nutrients and treated with postemergence applications of the test chemicals formulated in the same manner. Plants ranged in height from 2 to 18 cm (1- to 4-leaf stage). Treated plants and controls were maintained in a controlled growth environment for 7 to 21 days after which time all species were compared to controls and visually evaluated. Plant response ratings, summarized in Table D, are based on a scale of 0 to 100 where 0 is no effect and 100 is complete control. A dash (-) response means no test result.

[3] = test system: Italian ryegrass; assay: Test D preemergence; format: in vivo, Lolium multiflorum; conditions: Lolium multiflorum, pre-emergence
In short: as §1

[4] = test system: kochia; assay: Test D preemergence; format: in vivo, Kochia scoparia; conditions: Bassia scoparia, pre-emergence
In short: as §1

[5] = test system: pigweed; assay: Test D preemergence; format: in vivo, Amaranthus retroflexus; conditions: Amaranthus retroflexus, pre-emergence
Source text: as §2, §3

[6] = test system: wild oat; assay: Test D preemergence; format: in vivo, Avena fatua; conditions: Avena fatua, pre-emergence
In short: as §1

[7] = test system: wild radish; assay: Test D preemergence; format: in vivo, Raphanus raphanistrum; conditions: Raphanus raphanistrum, pre-emergence
Source text: as §2, §3

[8] = test system: deadnettle; assay: Test D postemergence; format: in vivo, Lamium amplexicaule; conditions: Lamium amplexicaule, post-emergence
In short: as §1

[9] = test system: speedwell; assay: Test D postemergence; format: in vivo, Veronica persica; conditions: Veronica persica, post-emergence
Source text: as §2, §3

[10] = test system: wild radish; assay: Test D postemergence; format: in vivo, Raphanus raphanistrum; conditions: Raphanus raphanistrum, post-emergence
Source text: as §2, §3

[11] = test system: windgrass; assay: Test D postemergence; format: in vivo, Apera spica-venti; conditions: Apera spica-venti, post-emergence
Source text: as §2, §3

Structure (SMILES): FC(F)(F)c1cnn(-c2ccccc2Oc2ncc(Br)cn2)c1 [Compound 18, 5-bromo-2-[2-[4-(trifluoromethyl)-1H-pyrazol-1-yl]phenoxy]pyrimidine]
- pest or weed control at 125 g/ha ([1]; 125 g ai/ha): 90%
- pest or weed control at 250 g/ha ([1]; 250 g ai/ha): 100%
- pest or weed control at 16 g/ha ([2]; 16 g ai/ha, scale 0 (no effect) to 100 (complete control), read-out: Plant response rating, Galium): 0%
- pest or weed control at 31 g/ha ([2]; 31 g ai/ha, scale 0-100, read-out: Plant response rating, Galium): 15%
- pest or weed control at 62 g/ha ([2]; 62 g ai/ha, scale 0-100, read-out: Plant response rating, Galium): 80%
- pest or weed control at 125 g/ha ([2]; 125 g ai/ha, scale 0-100, read-out: Plant response rating, Galium): 100%
- pest or weed control at 250 g/ha ([2]; 250 g ai/ha, scale 0-100, read-out: Plant response rating, Galium): 100%
- pest or weed control at 16 g/ha ([3]; 16 g ai/ha, scale 0 (no effect) to 100 (complete control), read-out: Plant response rating, Ryegrass, Italian): 10%
- pest or weed control at 31 g/ha ([3]; 31 g ai/ha, scale 0 (no effect) to 100 (complete control), read-out: Plant response rating, Ryegrass, Italian): 10%
- pest or weed control at 62 g/ha ([3]; 62 g ai/ha, scale 0-100, read-out: Plant response rating, Ryegrass, Italian): 20%
- pest or weed control at 125 g/ha ([3]; 125 g ai/ha, scale 0-100, read-out: Plant response rating, Ryegrass, Italian): 25%
- pest or weed control at 250 g/ha ([3]; 250 g ai/ha, scale 0-100, read-out: Plant response rating, Ryegrass, Italian): 50%
- pest or weed control at 16 g/ha ([4]; 16 g ai/ha, scale 0 (no effect) to 100 (complete control), read-out: Plant response rating, Kochia): 15%
- pest or weed control at 31 g/ha ([4]; 31 g ai/ha, scale 0-100, read-out: Plant response rating, Kochia): 90%
- pest or weed control at 62 g/ha ([4]; 62 g ai/ha, scale 0-100, read-out: Plant response rating, Kochia): 75%
- pest or weed control at 125 g/ha ([4]; 125 g ai/ha, scale 0-100, read-out: Plant response rating, Kochia): 100%
- pest or weed control at 250 g/ha ([4]; 250 g ai/ha, scale 0-100, read-out: Plant response rating, Kochia): 100%
- pest or weed control at 16 g/ha ([5]; 16 g ai/ha, scale 0 (no effect) to 100 (complete control), read-out: Plant response rating, Pigweed): 30%
- pest or weed control at 31 g/ha ([5]; 31 g ai/ha, scale 0 (no effect) to 100 (complete control), read-out: Plant response rating, Pigweed): 100%
- pest or weed control at 62 g/ha ([5]; 62 g ai/ha, scale 0-100, read-out: Plant response rating, Pigweed): 100%
- pest or weed control at 125 g/ha ([5]; 125 g ai/ha, scale 0-100, read-out: Plant response rating, Pigweed): 100%
- pest or weed control at 250 g/ha ([5]; 250 g ai/ha, scale 0-100, read-out: Plant response rating, Pigweed): 100%
- pest or weed control at 16 g/ha ([6]; 16 g ai/ha, scale 0 (no effect) to 100 (complete control), read-out: Plant response rating, Oat, Wild): 0%
- pest or weed control at 31 g/ha ([6]; 31 g ai/ha, scale 0-100, read-out: Plant response rating, Oat, Wild): 0%
- pest or weed control at 62 g/ha ([6]; 62 g ai/ha, scale 0-100, read-out: Plant response rating, Oat, Wild): 0%
- pest or weed control at 125 g/ha ([6]; 125 g ai/ha, scale 0-100, read-out: Plant response rating, Oat, Wild): 5%
- pest or weed control at 250 g/ha ([6]; 250 g ai/ha, scale 0-100, read-out: Plant response rating, Oat, Wild): 30%
- pest or weed control at 16 g/ha ([7]; 16 g ai/ha, scale 0 (no effect) to 100 (complete control), read-out: Plant response rating, Radish, Wild): 100%
- pest or weed control at 31 g/ha ([7]; 31 g ai/ha, scale 0 (no effect) to 100 (complete control), read-out: Plant response rating, Radish, Wild): 100%
- pest or weed control at 62 g/ha ([7]; 62 g ai/ha, scale 0-100, read-out: Plant response rating, Radish, Wild): 100%
- pest or weed control at 125 g/ha ([7]; 125 g ai/ha, scale 0-100, read-out: Plant response rating, Radish, Wild): 100%
- pest or weed control at 250 g/ha ([7]; 250 g ai/ha, scale 0-100, read-out: Plant response rating, Radish, Wild): 100%
- pest or weed control at 16 g/ha ([8]; 16 g ai/ha, scale 0-100, read-out: Plant response rating, Deadnettle): 50%
- pest or weed control at 31 g/ha ([8]; 31 g ai/ha, scale 0 to 100 (0 no effect, 100 complete control), read-out: Plant response rating, Deadnettle): 65%
- pest or weed control at 62 g/ha ([8]; 62 g ai/ha, scale 0 to 100 (0 no effect, 100 complete control), read-out: Plant response rating, Deadnettle): 75%
- pest or weed control at 125 g/ha ([8]; 125 g ai/ha, scale 0 to 100 (0 no effect, 100 complete control), read-out: Plant response rating, Deadnettle): 90%
- pest or weed control at 250 g/ha ([8]; 250 g ai/ha, scale 0 to 100 (0 no effect, 100 complete control), read-out: Plant response rating, Deadnettle): 100%
- pest or weed control at 16 g/ha ([9]; 16 g ai/ha, scale 0-100, read-out: Plant response rating, Speedwell): 100%
- pest or weed control at 31 g/ha ([9]; 31 g ai/ha, scale 0 to 100 (0 no effect, 100 complete control), read-out: Plant response rating, Speedwell): 100%
- pest or weed control at 62 g/ha ([9]; 62 g ai/ha, scale 0 to 100 (0 no effect, 100 complete control), read-out: Plant response rating, Speedwell): 100%
- pest or weed control at 125 g/ha ([9]; 125 g ai/ha, scale 0 to 100 (0 no effect, 100 complete control), read-out: Plant response rating, Speedwell): 100%
- pest or weed control at 250 g/ha ([9]; 250 g ai/ha, scale 0 to 100 (0 no effect, 100 complete control), read-out: Plant response rating, Speedwell): 100%
- pest or weed control at 16 g/ha ([10]; 16 g ai/ha, scale 0-100, read-out: Plant response rating, Radish, Wild): 95%
- pest or weed control at 31 g/ha ([10]; 31 g ai/ha, scale 0 to 100 (0 no effect, 100 complete control), read-out: Plant response rating, Radish, Wild): 90%
- pest or weed control at 62 g/ha ([10]; 62 g ai/ha, scale 0 to 100 (0 no effect, 100 complete control), read-out: Plant response rating, Radish, Wild): 100%
- pest or weed control at 125 g/ha ([10]; 125 g ai/ha, scale 0 to 100 (0 no effect, 100 complete control), read-out: Plant response rating, Radish, Wild): 100%
- pest or weed control at 250 g/ha ([10]; 250 g ai/ha, scale 0 to 100 (0 no effect, 100 complete control), read-out: Plant response rating, Radish, Wild): 100%
- pest or weed control at 16 g/ha ([11]; 16 g ai/ha, scale 0-100, read-out: Plant response rating, Windgrass): 5%
- pest or weed control at 31 g/ha ([11]; 31 g ai/ha, scale 0 to 100 (0 no effect, 100 complete control), read-out: Plant response rating, Windgrass): 10%
- pest or weed control at 62 g/ha ([11]; 62 g ai/ha, scale 0 to 100 (0 no effect, 100 complete control), read-out: Plant response rating, Windgrass): 10%
- pest or weed control at 125 g/ha ([11]; 125 g ai/ha, scale 0 to 100 (0 no effect, 100 complete control), read-out: Plant response rating, Windgrass): 10%
- pest or weed control at 250 g/ha ([11]; 250 g ai/ha, scale 0 to 100 (0 no effect, 100 complete control), read-out: Plant response rating, Windgrass): 10%
